Data set [1] concerns MV4-11. The data set is described as follows: Cell cycle arrest in human MV4-11 cells assessed as accumulation at S phase at 1 nM after 48 hrs by PI/RNase staining based FACS analysis (reference value: 16.50%). It counts as functional. (Flow cytometry measures light scatter and fluorescence of single cells or particles in a stream.)
Data set [2] relates to Receptor-type tyrosine-protein kinase FLT3 (Homo sapiens), P36888 [N841I]. The data set is described as follows: Inhibition of human FLT3 N841I mutant expressed in bacterial system assessed as remaining enzyme activity at 1 uM relative to untreated control.
For another data set, the system named is NCI-H209. The data set is described as follows: Antiproliferative activity against human H209 cells after 72 hrs by MTT assay. It is filed as functional, cell-based. The following applies: NCI-H209, 72 h.
The subject of another data set is NCI-H146. Description: Antiproliferative activity against human NCI-H146 cells after 72 hrs by MTT assay. It is filed as functional, cell-based. The following applies: NCI-H146, 72 h.
The nature of data set [3]: AUC (0 to infinity) in overnight fasted Sprague-Dawley rat plasma at 10 mg/kg administered via oral gavage up to 24 hrs by LC-MS/MS analysis. It counts as ADME, organism-based. On the set-up: dose 10 mg/kg, route oral, time infinity.
The target in data set [4] is Receptor-type tyrosine-protein kinase FLT3 (Homo sapiens, UniProt P36888, D835Y). The data set is described as follows: Binding affinity to human partial length FLT3 D835Y mutant (580 to 969 residues) expressed in bacterial expression system after 1 hr.
Data set [5] has as its system MV4-11. Description: Induction of apoptosis in human MV4-11 cells assessed as viable cells at 1000 nM after 48 hrs by annexin V/propidium iodide staining based FACS analysis (reference value: 90.60%). It counts as functional. The following applies: MV4-11, 48 h, read-out: Activity.
The subject of data set [6] is MV4-11. Description: Induction of apoptosis in human MV4-11 cells assessed as late apoptotic cells at 10 nM after 48 hrs by annexin V/propidium iodide staining based FACS analysis (reference value: 3.01%). It is filed as functional.
The subject of data set [7] is MV4-11. The data set is described as follows: Induction of apoptosis in human MV4-11 cells assessed as necrotic cells at 1 nM after 48 hrs by annexin V/propidium iodide staining based FACS analysis (reference value: 0.05%). It counts as functional.
Data set [8] deals with MV4-11. The data set is described as follows: Antitumor activity against human MV4-11 cells xenografted in nude BALB/c mouse assessed as tumor growth inhibition at 50 mg/kg, ip qd for 14 days measured every 2 days. It counts as functional. The following applies: MV4-11, ip, read-out: TGI. Background: Xenograft models place foreign cells or tissue in a host animal.
The test system of the next data set is K562. The data set is described as follows: cells. The following applies: Homo sapiens, K562, 72 h.
The test system of a further data set is THP-1. The data set is described as follows: Antiproliferative activity against human THP1 cells after 72 hrs by MTT assay. It counts as functional, cell-based. The following applies: THP-1, 72 h.

Description for K562: Antiproliferative activity against FLT3-deficient human K562 cells after 72 hrs by MTT assay

One may read the IC50 as the point on the concentration scale where inhibition reaches its midpoint. A low value points to inhibition by little substance. As a reminder, the AUC(0-inf) is the area under the concentration-time curve extrapolated to infinity. A lower AUC(0-inf) goes with less exposure. As usually defined, the Kd is the concentration at which binding is half-saturated. The low end stands for higher affinity, the high end for lower affinity. In the case of `Cc1cc(Nc2ncc3ncc(=O)n(-c4ccc(N)cc4)c3n2)ccc1N1CCN(C)CC1`, the Activity with MV4-11 [1] is 21.77%; in data set [2], < 1%; in the data set with MV4-11 [6], 3.34%; with MV4-11 [7], 0.1%. In addition, the IC50 in the data set with NCI-H209, with NCI-H146, with K562 and in the data set on THP-1 was > 10 µM in each case. This molecule also showed an AUC(0-inf) in data set [3] of 311 ng·h/mL. Besides, the Kd in data set [4] was 0.002 µM. For the same molecule, the viability at 1 µM in the data set with MV4-11 [5] came to 27.3%. In the data set with MV4-11 [8], the inhibition in vivo at 50 mg/kg came to 136%.

These data come from ChEMBL document CHEMBL4477208, “Discovery and Rational Design of Pteridin-7(8H)-one-Based Inhibitors Targeting FMS-like Tyrosine Kinase 3 (FLT3) and Its Mutants” (J Med Chem, 2016).
